Measured values as given in patent publication US10662183B2, “Inhibitors of myocardin-related transcription factor and serum response factor (MRTF/SRF)-mediated gene transcription and methods for use of the same” (THE REGENTS OF THE UNIVERSITY OF MICHIGAN, priority 2014, dated 2020).

What follows are molecules tested on SRE.L-firefly luciferase reporter (Rho/MKL1 pathway) in PC-3 prostate cancer cells (assay: SRE.L-luciferase reporter assay). Conditions: 19 h, PC-3 cells transfected with Gα12Q231L, SRE.L and pRL-TK reporters; compound 19 hrs.
Format: cell-based
Procedure: Seed PC-3 prostate cancer cells (40,000 cells/well) were grown in 96-well plates in 10% FBS containing DMEM medium. Cells were transiently transfected with the Ga12QL activator of the Rho/MKL1 pathway, along with the SRE.L-firefly luciferase reporter construct for 6 hours. Additionally, cells were co-transfected with the TK-Renilla luciferase reporter as an indicator of non-specific compound effects. Various concentrations of the compounds disclosed herein were added to the 96-well plates. Plates were incubated for 19 hours at 37° C. and 5% C02 in 0.5% FBS containing DMEM medium. Cells were lysed with IX Passive Lysis Buffer (Promega). Plates were incubated for 30 minutes at room temperature. Luminescence counts were read with a Victor2 (Perkin-Elmer) plate reader.
One hour prior to cell lysis for the dual luciferase assay, 10 μl: per well of WST1 reagent (Roche) was added to the 96-well plates. Plates were incubated for 1 hour at 37° C. and 5% CO2. Cell viability was measured by WST1 absorbance at 450 nm with a Victor2 (Perkin-Elmer) plate reader.
Biological activity of the compounds disclosed herein were assessed in the SRE.L luciferase reporter assay. PC-3 prostate cancer cells were co-transfected with 2 ng of the Gα12Q231L expression plasmid along with 50 ng of the SRE.L and 7 ng of the pRL-TK luciferase reporter plasmids, as described in the Materials and Methods section. Cells were treated with 0 (vehicle, DMSO alone), 1, 3, 10, 30, and 100 μM of a compound disclosed herein for 19 hrs after transfection before lysis. Luminescence was determined as described in the Materials and Methods section. Just before cell lysis, the viability of the cells was measured using the WST-1 cell proliferation reagent as described in the Materials and Methods section. Data are expressed as percentage of inhibition (DMSO alone=0%). The experiments were performed three separate times to achieve n=3 in triplicate.

Row | SMILES | IC50 [µM]
1 | CCC(=O)N1CCN(C(=O)c2cccc(-c3ccco3)c2)CC1C(=O)Nc1ccc(Cl)cc1 (centres unmarked) [Example E-005, N-(4-chlorophenyl)-4-(3-(furan-2-yl)benzoyl)-1-propionylpiperazine-2-carboxamide] | 19
2 | CC(=O)N1CCN(C(=O)c2cccc(-c3ccco3)c2)CC1C(=O)Nc1ccc(Cl)cc1 (centres unmarked) [Example E-008, 1-acetyl-N-(4-chlorophenyl)-4-(3-(furan-2-yl)benzoyl)piperazine-2-carboxamide] | 50
3 | O=C(Nc1ccc(Cl)cc1)C1CN(C(=O)c2cccc(-c3ccco3)c2)CCN1C(=O)Nc1ccccc1 (centres unmarked) [Example E-009, N2-(4-chlorophenyl)-4-(3-(furan-2-yl)benzoyl)-N1-phenylpiperazine-1,2-dicarboxamide] | 18
4 | CC(C)NC(=O)N1CCN(C(=O)c2cccc(-c3ccco3)c2)CC1C(=O)Nc1ccc(Cl)cc1 (centres unmarked) [Example E-010, N2-(4-chlorophenyl)-4-(3-(furan-2-yl)benzoyl)-N1-isopropylpiperazine-1,2-dicarboxamide] | 24
5 | C=CCNC(=O)N1CCN(C(=O)c2cccc(-c3ccco3)c2)CC1C(=O)Nc1ccc(Cl)cc1 (centres unmarked) [Example E-012, N1-allyl-N2-(4-chlorophenyl)-4-(3-(furan-2-yl)benzoyl)piperazine-1,2-dicarboxamide] | 25
6 | CCCOC(=O)N1CCN(C(=O)c2cccc(-c3ccco3)c2)CC1C(=O)Nc1ccc(Cl)cc1 (centres unmarked) [Example E-013, propyl 2((4-chlorophenyl)carbamoyl)-4-(3-(furan-2-yl)benzoyl)piperazine-1-carboxylate] | 18
7 | O=C(Nc1ccc(Cl)cc1)C1CN(C(=O)c2cccc(-c3ccco3)c2)CCN1C(=O)Oc1ccccc1 (centres unmarked) [Example E-015, phenyl 2((4-chlorophenyl)carbamoyl)-4-(3-(furan-2-yl)benzoyl)piperazine-1-carboxylate] | 26
8 | COCCOC(=O)N1CCN(C(=O)c2cccc(-c3ccco3)c2)CC1C(=O)Nc1ccc(Cl)cc1 (centres unmarked) [Example E-016, 2-methoxyethyl 2((4-chlorophenyl)carbamoyl)-4-(3-(furan-2-yl)benzoyl)piperazine-1-carboxylate] | 16
9 | O=C(Nc1ccc(Cl)cc1)C1CN(C(=O)c2cccc(-c3ccco3)c2)CCN1Cc1ccccc1 (centres unmarked) [Example E-017, 1-benzyl-N-(4-chlorophenyl)-4-(3-(furan-2-yl)benzoyl)piperazine-2-carboxamide] | 16

The next lines start with the values.

Row | IC50 [µM] | SMILES
10 | 16 | CCOC(=O)N1CCN(C(=O)c2cccc(-c3ccco3)c2)CC1C(=O)Nc1ccc(Cl)cc1 (centres unmarked) [Example E-014, ethyl 2((4-chlorophenyl)carbamoyl)-4-(3-(furan-2-yl)benzoyl)piperazine-1-carboxylate]
11 | 15 | COc1ccc(C(=O)N2CCN(C(=O)c3cccc(-c4ccco4)c3)CC2C(=O)Nc2ccc(Cl)cc2)cc1 (centres unmarked) [Example E-007, N-(4-chlorophenyl)-4-(3-(furan-2-yl)benzoyl)-1-(4-methoxybenzoyl)piperazine-2-carboxamide]
12 | 14 | O=C(Nc1ccc(Cl)cc1)C1CN(C(=O)c2cccc(-c3ccco3)c2)CCN1C(=O)NC1CCCC1 (centres unmarked) [Example E-011, N2-(4-chlorophenyl)-N1-cyclopentyl-4-(3-(furan-2-yl)benzoyl)piperazine-1,2-dicarboxamide]
13 | 12 | O=C(Nc1ccc(Cl)cc1)C1CCCN(C(=O)c2cccc(-c3ccc(Cl)o3)c2)C1 (centres unmarked) [Example E-003, 1-(3-(5-chlorofuran-2-yl)benzoyl)-N-(4-chlorophenyl)piperidine-3-carboxamide]
14 | 12 | CC(C)C(=O)N1CCN(C(=O)c2cccc(-c3ccco3)c2)CC1C(=O)Nc1ccc(Cl)cc1 (centres unmarked) [Example E-006, N-(4-chlorophen)-4-(3-(furan-2-yl)benzoyl)-1-isobutyrylpiperazine-2-carboxamide]
15 | 8.7 | CN1CCN(C(=O)c2cccc(-c3ccco3)c2)CC1C(=O)Nc1ccc(Cl)cc1 (centres unmarked) [Example E-018, N-(4-chlorophenyl)-4-(3-(furan-2-yl)benzoyl)-1-methylpiperazine-2-carboxamide]
16 | 7.3 | O=C(c1cccc(-c2ccco2)c1)N1CCCC(F)(C(=O)Nc2ccc(Cl)cc2)C1 (centres unmarked) [Example E-001, N-(4-chlorophenyl)-3-fluoro-1-(3-(furan-2-yl)benzoyl)piperidine-3-carboxamide]
17 | 7.1 | O=C(Nc1ccc(Cl)cc1)C1CCCN(C(=O)c2cccc(-c3ccco3)c2)C1 (centres unmarked) [Example E-002, N-(4-chlorophenyl)-1-(3-(furan-2-yl)benzoyl)piperidine-3-carboxamide]
18 | 4.9 | O=C(Nc1ccc(Cl)cc1)C1CCCN(C(=O)c2cncc(-c3ccco3)c2)C1 (centres unmarked) [Example E-023, N-(4-chlorophenyl)-1-(5-(furan-2-yl)nicotinoyl)piperidine-3-carboxamide]
19 | 4.4 | COC1(OC)CC(C(=O)Nc2ccc(Cl)cc2)CN(C(=O)c2cccc(-c3ccco3)c2)C1 (centres unmarked) [Example E-021, N-(4-chlorophenyl)-1-(3-(furan-2-yl)benzoyl)-5,5-dimethoxypiperidine-3-carboxamide]
20 | 4.3 | O=C(Nc1ccc(Cl)cc1)C1CCCN(C(=O)c2cc(-c3ccco3)ccn2)C1 (centres unmarked) [Example E-024, N-(4-chlorophenyl)-1-(4-(furan-2-yl)picolinoyl)piperidine-3-carboxamide]
21 | 1.9 | C=C1CC(C(=O)Nc2ccc(Cl)cc2)CN(C(=O)c2cccc(-c3ccco3)c2)C1 (centres unmarked) [Example E-020, N-(4-chlorophenyl)-1-(3-(furan-2-yl)benzoyl)-5-methylenepiperidine-3-carboxamide]
22 | 1.8 | O=C(Nc1ccc(Cl)cc1)C1CN(C(=O)c2cccc(-c3ccco3)c2)CCN1C(=O)OCc1ccccc1 (centres unmarked) [Example E-004, benzyl 2-((4-chlorophenyl)carbamoyl)-4-(3-(furan-2-yl)benzoyl)piperazine-1-carboxylate]
23 | 1.4 | CC(c1ccc(-n2cccn2)cc1)N1CCCC(C(=O)Nc2ccc(Cl)cc2)C1 (single isomer, unassigned) [Example E-102, 1-(1-(4-(1H-pyrazol-1-yl)phenyl)ethyl)-N-(4-chlorophenyl)piperidine-3-carboxamide]
24 | 0.81 | O=C(Nc1ccc(Cl)cc1)C1CN(C(=O)c2cc(-c3ccco3)ccn2)CC(F)(F)C1 (centres unmarked) [Example E-025, N-(4-chlorophenyl)-5,5-difluoro-1-{[4-(furan-2-yl)pyridin-2-yl]carbonyl}piperidine-3-carboxamide]
25 | 0.58 | O=C(Nc1ccc(Cl)cc1)C1CN(C(=O)c2cccc(-c3ccco3)c2)CC(F)(F)C1 (centres unmarked) [Example E-019, N-(4-chlorophenyl)-5,5-difluoro-1-(3-(furan-2-yl)benzoyl)piperidine-3-carboxamide]

Same assay, conditions: PC-3 cells transfected with Gα12Q231L, SRE.L and pRL-TK reporters; compound 19 hrs

Row | IC50 [µM] | SMILES
26 | 0.93 | COC1CC(C(=O)Nc2ccc(Cl)cc2)CN(C(=O)c2cccc(-c3ccco3)c2)C1 (single isomer, unassigned) [Example E-045, N-(4-chlorophenyl)-1-(3-(furan-2-yl)benzoyl)-5-methoxypiperidine-3-carboxamide]
27 | 2.3 | COC1CC(C(=O)Nc2ccc(Cl)cc2)CN(C(=O)c2cccc(-c3ccco3)c2)C1 (single isomer, unassigned) [Example E-046, N-(4-chlorophenyl)-1-(3-(furan-2-yl)benzoyl)-5-methoxypiperidine-3-carboxamide]
28 | 30 | O=C(NC1CC(C(=O)Nc2ccc(Cl)cc2)CN(C(=O)c2cccc(-c3ccco3)c2)C1)c1ccccc1 (single isomer, unassigned) [Example E-054, 5-benzamido-N-(4-chlorophenyl)-1-(3-(furan-2-yl)benzoyl) piperidine-3-carboxamide]
29 | 2.2 | O=C(NC1CC(C(=O)Nc2ccc(Cl)cc2)CN(C(=O)c2cccc(-c3ccco3)c2)C1)c1ccccc1 (single isomer, unassigned) [Example E-055, 5-benzamido-N-(4-chlorophenyl)-1-(3-(furan-2-yl)benzoyl) piperidine-3-carboxamide]
30 | 18 | CN(Cc1ccccc1)C1CC(C(=O)Nc2ccc(Cl)cc2)CN(C(=O)c2cccc(-c3ccco3)c2)C1 (single isomer, unassigned) [Example E-060, 5-(benzyl(methyl)amino)-N-(4-chlorophenyl)-1-(3-(furan-2-yl)benzoyl)piperidine-3-carboxamide]
31 | 1.9 | CN(Cc1ccccc1)C1CC(C(=O)Nc2ccc(Cl)cc2)CN(C(=O)c2cccc(-c3ccco3)c2)C1 (single isomer, unassigned) [Example E-061, 5-(benzyl(methyl)amino)-N-(4-chlorophenyl)-1-(3-(furan-2-yl)benzoyl)piperidine-3-carboxamide]
32 | 2.2 | CC(c1ccc(-n2cccn2)cc1)N1CCCC(C(=O)Nc2ccc(Cl)cc2)C1 (single isomer, unassigned) [Example E-103, 1-(1-(4-(1H-pyrazol-1-yl)phenyl)ethyl)-N-(4-chlorophenyl)piperidine-3-carboxamide]
